Assays:
[1] = system: normal NK cells expanded with K562-aAPC; assay: percent inhibition of viability; higher = more inhibition; conditions: 72 h, IL-2 2.5 ng/mL
Description: (§1)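 Drug sensitivity and resistance testing on K562-aAPC-expanded normal NK cells: 5 concentrations (10-fold steps over a 10,000-fold range), 72 h at 37 °C, viability by CellTiter-Glo normalised to DMSO and benzethonium chloride controls; DSS from the fitted curve.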

DERL-7 (IL-2 2.5 ng/mL) [2] = assay: as above; conditions: 72 h
IMC-1 (IL-2 20 ng/mL) [3] = assay: as above; conditions: 72 h
KAI3 (IL-2 2.5 ng/mL) [4] = assay: as above; conditions: 72 h
KHYG-1 (IL-2 2.5 ng/mL) [5] = assay: as above; conditions: 72 h
NK-92 (IL-2 2.5 ng/mL) [6] = assay: as above; conditions: 72 h
NK-YS (IL-2 2.5 ng/mL) [7] = assay: as above; conditions: 72 h
NKL (IL-2 2.5 ng/mL) [8] = assay: as above; conditions: 72 h
SNK-6 (IL-2 2.5 ng/mL) [9] = assay: as above; conditions: 72 h
YT (IL-2 2.5 ng/mL) [10] = assay: as above; conditions: 72 h
[11] = system: normal primary NK cells, pool 1 (3 donors) (IL-2 2.5 ng/mL); assay: as above; conditions: 72 h
[12] = system: normal primary NK cells, pool 1 (3 donors), resting (IL-2 0 ng/mL); assay: as above; conditions: 72 h
[13] = system: normal primary NK cells, pool 2 (3 donors) (IL-2 2.5 ng/mL); assay: as above; conditions: 72 h
[14] = system: normal primary NK cells, pool 3 (3 donors) (IL-2 2.5 ng/mL); assay: as above; conditions: 72 h
[15] = system: normal NK cells expanded with K562-aAPC; assay: drug sensitivity score (DSS) (DSS units); higher = more sensitive; extreme values may be limits of the assay; conditions: 72 h; IL-2 2.5 ng/mL
Description: as §1

DERL-7 (IL-2 2.5 ng/mL) [16] = assay: as above; conditions: 72 h
IMC-1 (IL-2 20 ng/mL) [17] = assay: as above; conditions: 72 h
KAI3 (IL-2 2.5 ng/mL) [18] = assay: as above; conditions: 72 h
KHYG-1 (IL-2 2.5 ng/mL) [19] = assay: as above; conditions: 72 h
NK-92 (IL-2 2.5 ng/mL) [20] = assay: as above; conditions: 72 h
NK-YS (IL-2 2.5 ng/mL) [21] = assay: as above; conditions: 72 h
NKL (IL-2 2.5 ng/mL) [22] = assay: as above; conditions: 72 h
SNK-6 (IL-2 2.5 ng/mL) [23] = assay: as above; conditions: 72 h
YT (IL-2 2.5 ng/mL) [24] = assay: as above; conditions: 72 h
[25] = system: normal primary NK cells, pool 1 (3 donors) (IL-2 2.5 ng/mL); assay: as above; conditions: 72 h
[26] = system: normal primary NK cells, pool 1 (3 donors), resting (IL-2 0 ng/mL); assay: as above; conditions: 72 h
[27] = system: normal primary NK cells, pool 2 (3 donors) (IL-2 2.5 ng/mL); assay: as above; conditions: 72 h
[28] = system: normal primary NK cells, pool 3 (3 donors) (IL-2 2.5 ng/mL); assay: as above; conditions: 72 h

O=P1(N(CCCl)CCCl)NCCCO1 (stereo not drawn) [Cyclophosphamide] (max concentration tested 40000 nM)
percent inhibition of viability [%]
Conditions | 4 nM | 40 nM | 400 nM | 4000 nM | 40000 nM
DERL-7 (IL-2 2.5 ng/mL) [2] | -4.46 | -3.5 | -1.09 | -0.28 | 5.07
IMC-1 (IL-2 20 ng/mL) [3] | -3.57 | -3.7 | -1.67 | -7.03 | -3.85
KAI3 (IL-2 2.5 ng/mL) [4] | -3.45 | 3.79 | 4.87 | 17.2 | 40.9
KHYG-1 (IL-2 2.5 ng/mL) [5] | -3.97 | -6.87 | -6.42 | -6.18 | -3.6
NK-92 (IL-2 2.5 ng/mL) [6] | -18.2 | -9.83 | -4.39 | -1.7 | 10.6
NK-YS (IL-2 2.5 ng/mL) [7] | -5.26 | -6.65 | -2.31 | -4.3 | 5.51
NKL (IL-2 2.5 ng/mL) [8] | -11.1 | -8.19 | -4.09 | -3.02 | 8.99
SNK-6 (IL-2 2.5 ng/mL) [9] | 7.84 | -6.82 | 9.06 | -4.15 | 10.8
YT (IL-2 2.5 ng/mL) [10] | -4.55 | -6.6 | -7.59 | -8.95 | -8.31
[1] | 1.23 | -1.48 | -6.12 | -0.37 | 32.1
[11] | -10.4 | -10.4 | -10.4 | 1.26 | 30.9
[12] | -3.08 | -15.2 | -6.52 | 18.4 | 64.8
[13] | -11 | -0.5 | -0.82 | 2.11 | 21.8
[14] | -7.23 | -5.67 | -9.18 | 0.96 | 16.7

Conditions | drug sensitivity score
DERL-7 (IL-2 2.5 ng/mL) [16] | 0
IMC-1 (IL-2 20 ng/mL) [17] | 0
KAI3 (IL-2 2.5 ng/mL) [18] | 3.77
KHYG-1 (IL-2 2.5 ng/mL) [19] | 0
NK-92 (IL-2 2.5 ng/mL) [20] | 0
NK-YS (IL-2 2.5 ng/mL) [21] | 0
NKL (IL-2 2.5 ng/mL) [22] | 0
SNK-6 (IL-2 2.5 ng/mL) [23] | 0
YT (IL-2 2.5 ng/mL) [24] | 0
[15] | 1.42
[25] | 1.52
[26] | 6.32
[27] | 1.01
[28] | 0.44

Nc1ccn([C@@H]2O[C@H](CO)[C@@H](O)[C@@H]2O)c(=O)n1 [Cytarabine] (max concentration tested 10000 nM)
percent inhibition of viability [%]
Conditions | 1 nM | 10 nM | 100 nM | 1000 nM | 10000 nM
DERL-7 (IL-2 2.5 ng/mL) [2] | -3.03 | 23.2 | 88.8 | 98.1 | 99.7
IMC-1 (IL-2 20 ng/mL) [3] | -2.71 | -1.64 | 59.5 | 98.2 | 99.6
KAI3 (IL-2 2.5 ng/mL) [4] | -13.4 | 12.5 | 67.4 | 95.8 | 95.5
KHYG-1 (IL-2 2.5 ng/mL) [5] | -3.64 | 17.1 | 88.3 | 105 | 102
NK-92 (IL-2 2.5 ng/mL) [6] | 0.96 | 0.98 | 50.8 | 95.5 | 97.8
NK-YS (IL-2 2.5 ng/mL) [7] | -6.32 | -1.48 | 14 | 77.5 | 92.9
NKL (IL-2 2.5 ng/mL) [8] | -6.71 | 6.58 | 60.2 | 94.3 | 93.6
SNK-6 (IL-2 2.5 ng/mL) [9] | 18.7 | 4.98 | 31.7 | 83.1 | 97.5
YT (IL-2 2.5 ng/mL) [10] | -3.82 | 0.15 | -0.65 | 19.1 | 28.4
[1] | 0.23 | -1.23 | 28.7 | 84.4 | 98.9
[11] | -4.48 | -4.56 | -4.83 | 23 | 80.4
[12] | -11.7 | -15.1 | -18.8 | 29.4 | 78.7
[13] | -14.2 | -13.4 | -1.98 | 13.2 | 79.9
[14] | -11.3 | -7.93 | -9.4 | 7.11 | 73.2

Conditions | drug sensitivity score
DERL-7 (IL-2 2.5 ng/mL) [16] | 31.5
IMC-1 (IL-2 20 ng/mL) [17] | 25
KAI3 (IL-2 2.5 ng/mL) [18] | 26.2
KHYG-1 (IL-2 2.5 ng/mL) [19] | 30.8
NK-92 (IL-2 2.5 ng/mL) [20] | 23.6
NK-YS (IL-2 2.5 ng/mL) [21] | 16
NKL (IL-2 2.5 ng/mL) [22] | 24.4
SNK-6 (IL-2 2.5 ng/mL) [23] | 19.1
YT (IL-2 2.5 ng/mL) [24] | 3.34
[15] | 19
[25] | 7.89
[26] | 8.4
[27] | 6.63
[28] | 5.19
